Experimental data as given in ChEMBL document CHEMBL5303573, “Mapping human microbiome drug metabolism by gut bacteria and their genes” (Nature, 2019).

Key:
[1] = The drug is tested on Bifidobacterium breve strain: DSM20213 for biotransformation. The drug concentrations were measured before and after a 12-h incubation by liquid-chromatography-coupled mass spectrometry (LC–MS); settings: 2 µM
[2] = The drug is tested on Alistipes indistinctus strain: DSM22520 for biotransformation. The drug concentrations were measured before and after a 12-h incubation by liquid-chromatography-coupled mass spectrometry (LC–MS); settings: 2 µM
[3] = The drug is tested on Bacteroides cellulosilyticus strain: DSM14838 for biotransformation. The drug concentrations were measured before and after a 12-h incubation by liquid-chromatography-coupled mass spectrometry (LC–MS); settings: 2 µM
[4] = The drug is tested on Bacteroides coprophilus strain: DSM18228 for biotransformation. The drug concentrations were measured before and after a 12-h incubation by liquid-chromatography-coupled mass spectrometry (LC–MS); settings: 2 µM
[5] = The drug is tested on Bacteroides fragilis strain: HMW615 for biotransformation. The drug concentrations were measured before and after a 12-h incubation by liquid-chromatography-coupled mass spectrometry (LC–MS); settings: 2 µM
[6] = The drug is tested on Bacteroides uniformis strain: ATCC8492 for biotransformation. The drug concentrations were measured before and after a 12-h incubation by liquid-chromatography-coupled mass spectrometry (LC–MS); settings: 2 µM
[7] = The drug is tested on Bacteroides vulgatus strain: ATCC8482 for biotransformation. The drug concentrations were measured before and after a 12-h incubation by liquid-chromatography-coupled mass spectrometry (LC–MS); settings: phocaeicola vulgatus, 2 µM
[8] = The drug is tested on Bacteroides xylanisolvens strain: DSM18836 for biotransformation. The drug concentrations were measured before and after a 12-h incubation by liquid-chromatography-coupled mass spectrometry (LC–MS); settings: 2 µM
[9] = The drug is tested on Dorea formicigenerans strain: ATCC27755 for biotransformation. The drug concentrations were measured before and after a 12-h incubation by liquid-chromatography-coupled mass spectrometry (LC–MS); settings: 2 µM
[10] = The drug is tested on Eubacterium hallii strain: DSM3353 for biotransformation. The drug concentrations were measured before and after a 12-h incubation by liquid-chromatography-coupled mass spectrometry (LC–MS); settings: anaerobutyricum hallii, 2 µM
[11] = The drug is tested on Ruminococcus gnavus strain: ATCC29149 for biotransformation. The drug concentrations were measured before and after a 12-h incubation by liquid-chromatography-coupled mass spectrometry (LC–MS); settings: mediterraneibacter gnavus, 2 µM
[12] = The drug is tested on Ruminococcus lactaris strain: ATCC29176 for biotransformation. The drug concentrations were measured before and after a 12-h incubation by liquid-chromatography-coupled mass spectrometry (LC–MS); settings: 2 µM
[13] = bacteroides intestinalis, 12 h, 2 µM
Description: The drug is tested on Bacteroides intestinalis strain: DSM17393 for biotransformation. The drug concentrations were measured before and after a 12-h incubation by liquid-chromatography-coupled mass spectrometry (LC–MS)

[14] = bacteroides thetaiotaomicron, 12 h, 2 µM
Description: The drug is tested on Bacteroides thetaiotaomicron strain: VPI-5482 for biotransformation. The drug concentrations were measured before and after a 12-h incubation by liquid-chromatography-coupled mass spectrometry (LC–MS)

[15] = anaerostipes sp., 12 h, 2 µM
Description: The drug is tested on Anaerostipes sp. strain: fecal isolate for biotransformation. The drug concentrations were measured before and after a 12-h incubation by liquid-chromatography-coupled mass spectrometry (LC–MS)

[16] = The drug is tested on Providencia rettgeri strain: DSM1131 for biotransformation. The drug concentrations were measured before and after a 12-h incubation by liquid-chromatography-coupled mass spectrometry (LC–MS); type: ADME; set-up: dose 2 uM, timepoint 0 vs 12 hours; settings: 2 µM
[17] = The drug is tested on Bacteroides ovatus strain: ATCC8483 for biotransformation. The drug concentrations were measured before and after a 12-h incubation by liquid-chromatography-coupled mass spectrometry (LC–MS); settings: 2 µM
[18] = bifidobacterium adolescentis, 12 h, 2 µM
Description: The drug is tested on Bifidobacterium adolescentis strain: ATCC 15703 for biotransformation. The drug concentrations were measured before and after a 12-h incubation by liquid-chromatography-coupled mass spectrometry (LC–MS)

Row | SMILES | Bacterial Biotransformation [1] | Bacterial Biotransformation [2] | Bacterial Biotransformation [3] | Bacterial Biotransformation [4] | Bacterial Biotransformation [5] | Bacterial Biotransformation [6] | Bacterial Biotransformation [7] | Bacterial Biotransformation [8] | Bacterial Biotransformation [9] | Bacterial Biotransformation [10] | Bacterial Biotransformation [11] | Bacterial Biotransformation [12] | Bacterial Biotransformation [13] | Bacterial Biotransformation [14] | Bacterial Biotransformation [15] | Bacterial Biotransformation [16] | Bacterial Biotransformation [17] | Bacterial Biotransformation [18]
1 | O=C(O)COCCN1CCN(C(c2ccccc2)c2ccc(Cl)cc2)CC1 (stereo unspecified) [CETIRIZINE] | Compound NOT metabolized | Compound metabolized | Compound metabolized | Compound metabolized | Compound metabolized | Compound metabolized | Compound metabolized | Compound metabolized | Compound NOT metabolized | Compound NOT metabolized | Compound NOT metabolized | Compound NOT metabolized | Compound metabolized | Compound metabolized | Compound NOT metabolized | – | – | –
2 | CCOC(=O)[C@H](CCc1ccccc1)N[C@@H](C)C(=O)N1Cc2ccccc2C[C@H]1C(=O)O | Compound metabolized | – | Compound metabolized | Compound metabolized | Compound metabolized | Compound metabolized | Compound metabolized | Compound metabolized | Compound NOT metabolized | Compound NOT metabolized | Compound NOT metabolized | Compound NOT metabolized | Compound metabolized | Compound metabolized | Compound NOT metabolized | Compound NOT metabolized | – | –
3 | CN(C)CCC=C1c2ccccc2C=Cc2ccccc21 [CYCLOBENZAPRINE] | Compound NOT metabolized | – | – | Compound NOT metabolized | Compound NOT metabolized | – | Compound NOT metabolized | Compound NOT metabolized | Compound NOT metabolized | Compound NOT metabolized | Compound NOT metabolized | Compound NOT metabolized | Compound NOT metabolized | Compound NOT metabolized | Compound NOT metabolized | – | Compound NOT metabolized | Compound NOT metabolized
4 | CN1CCN(C2=Nc3cc(Cl)ccc3Nc3ccccc32)CC1 [CLOZAPINE] | Compound NOT metabolized | – | Compound NOT metabolized | – | Compound NOT metabolized | Compound NOT metabolized | Compound NOT metabolized | Compound NOT metabolized | Compound NOT metabolized | Compound NOT metabolized | Compound NOT metabolized | Compound NOT metabolized | Compound NOT metabolized | Compound NOT metabolized | Compound NOT metabolized | Compound NOT metabolized | Compound NOT metabolized | Compound NOT metabolized
5 | CCCC(C)(COC(N)=O)COC(=O)NC(C)C (stereo unspecified) [CARISOPRODOL] | Compound NOT metabolized | Compound NOT metabolized | Compound metabolized | Compound metabolized | Compound metabolized | Compound metabolized | Compound metabolized | Compound metabolized | Compound NOT metabolized | Compound NOT metabolized | Compound NOT metabolized | – | Compound NOT metabolized | Compound metabolized | Compound NOT metabolized | – | – | –
6 | Clc1cccc(Cl)c1N=C1NCCN1 [CLONIDINE] | Compound NOT metabolized | – | Compound NOT metabolized | Compound metabolized | Compound metabolized | Compound metabolized | – | Compound NOT metabolized | Compound NOT metabolized | Compound NOT metabolized | Compound NOT metabolized | Compound NOT metabolized | Compound NOT metabolized | Compound metabolized | Compound NOT metabolized | Compound NOT metabolized | Compound metabolized | Compound NOT metabolized
7 | CCN(CC)CCNC(=O)c1ccc(NC(C)=O)cc1 [ACECAINIDE] | Compound NOT metabolized | Compound NOT metabolized | – | Compound NOT metabolized | Compound NOT metabolized | Compound metabolized | Compound NOT metabolized | Compound NOT metabolized | Compound NOT metabolized | Compound NOT metabolized | Compound NOT metabolized | Compound NOT metabolized | Compound NOT metabolized | Compound NOT metabolized | Compound NOT metabolized | Compound NOT metabolized | – | Compound NOT metabolized
8 | C[N+]12CCC(CC1)C(OC(=O)C(O)(c1ccccc1)c1ccccc1)C2.[Br-] (stereo unspecified) [CLIDINIUM BROMIDE] | Compound NOT metabolized | – | – | Compound NOT metabolized | – | Compound NOT metabolized | – | Compound NOT metabolized | Compound NOT metabolized | Compound NOT metabolized | Compound NOT metabolized | Compound NOT metabolized | Compound NOT metabolized | Compound NOT metabolized | Compound NOT metabolized | Compound NOT metabolized | Compound NOT metabolized | Compound NOT metabolized
9 | Clc1ccc(Cn2c(CN3CCCC3)nc3ccccc32)cc1 [CLEMIZOLE] | Compound NOT metabolized | Compound NOT metabolized | – | – | Compound NOT metabolized | Compound NOT metabolized | Compound NOT metabolized | Compound NOT metabolized | Compound NOT metabolized | Compound NOT metabolized | Compound NOT metabolized | Compound NOT metabolized | Compound NOT metabolized | Compound NOT metabolized | Compound NOT metabolized | Compound NOT metabolized | Compound NOT metabolized | Compound NOT metabolized
